PubChem BioAssay (NCI)
Where “and” joins values, the source holds several entries; their conditions need not be identical. Identical values can stand only once.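 Protocol summary: plate cells (96-well), add compound at 5 concentrations, incubate 48 h, interpolate endpoints linearly. GI50 is the concentration that inhibits growth by half. TGI denotes the concentration required for complete inhibition of growth.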

Assays:
Test in all cases: growth of human tumour cells (NCI), 48 h
[1] = system: ACHN renal
[2] = system: CCRF-CEM leukemia
[3] = system: HL-60(TB) leukemia
[4] = system: HOP-92 NSCLC
[5] = system: HT29 colon
[6] = system: IGROV1 ovarian
[7] = system: NCI-H23 lung
[8] = system: SF-295 CNS
[9] = system: SK-MEL-2 melanoma
[10] = system: SK-MEL-28 melanoma

SMILES | GI50 [1] | TGI [1] | GI50 [2] | TGI [2] | GI50 [3] | TGI [3] | GI50 [4] | TGI [4] | GI50 [5] | TGI [5] | GI50 [6] | TGI [6] | GI50 [7] | TGI [7] | GI50 [8] | TGI [8] | GI50 [9] | TGI [9] | GI50 [10] | TGI [10]
CO[C@@H]1CC[C@]2(C)OC[C@H](C)[C@@H]3C[C@@H](C)[C@@H](OC(C)=O)[C@@H]4[C@H]3[C@@H]2O[C@H]4C[C@@]1(C)O | > 100 µM | > 100 µM | > 100 µM | > 100 µM | > 100 µM | > 100 µM | > 100 µM | > 100 µM | > 100 µM | > 100 µM | > 100 µM | > 100 µM | > 100 µM | > 100 µM | > 100 µM | > 100 µM | > 100 µM | > 100 µM | > 100 µM | > 100 µM
NC(=O)c1cc(I)ccc1NC(=O)/C=C/c1ccccc1 | 3.15 µM | > 47.1 µM | 0.36 µM | – | 0.13 µM | 0.912 µM | 17 µM | 97.7 µM | 0.374 µM | > 31.8 µM | 0.917 µM | 19.9 µM | 1 µM | > 44.9 µM | 0.326 µM | 3.38 µM | 2.25 µM | > 56.6 µM | 1.17 µM | > 86.8 µM
Nc1nc(Cl)nc2c1ncn2C1CC(O)C(CO)O1 (stereo unspecified) | 0.562 µM | > 100 µM | – | 11.5 µM | – | 1.02 µM | – | 24.2 µM | – | > 100 µM | – | > 100 µM | – | 4.78 µM | – | 99.9 µM | – | > 100 µM | – | > 100 µM
CC12c3ccccc3C(OC=O)(c3ccccc31)C1(C)c3ccccc3C2(OC=O)c2ccccc21 | – | > 100 µM | – | 89.1 µM | – | > 100 µM | – | > 100 µM | – | > 100 µM | – | > 100 µM | – | > 100 µM | – | > 100 µM | – | > 100 µM | – | > 100 µM
O=C1c2cccc3cccc(c23)C(=O)N1CCN(CCO)CCO | – | 67.5 µM | – | > 100 µM | – | > 100 µM | – | 83 µM | – | 76.1 µM | – | > 100 µM | – | 74.8 µM | – | > 100 µM | – | 30.2 µM | – | > 100 µM
CCCCCCCCCCCC[N+]12CC[N+](CCN)(CC1)CC2 | – | > 100 µM | – | > 100 µM | – | > 100 µM | – | > 100 µM | – | > 100 µM | – | 39.7 µM | – | > 100 µM | – | > 100 µM | – | > 100 µM | – | > 100 µM
COCOCCC#CCO | – | > 100 µM | – | > 100 µM | – | > 100 µM | – | > 100 µM | – | > 100 µM | – | > 100 µM | – | > 100 µM | – | > 100 µM | – | > 100 µM | – | > 100 µM
Cc1cc(C)nc(NS(=O)(=O)c2ccc(Nc3c4ccccc4nc4c(C(=O)N5CCN(CCO)CC5)cccc34)cc2)n1 | – | > 100 µM | – | > 100 µM | – | > 100 µM | – | > 100 µM | – | > 100 µM | – | > 100 µM | – | > 100 µM | – | > 100 µM | – | > 100 µM | – | > 100 µM
NC(=S)N/N=C/c1ncccc1O | 0.202 µM | 8.54 µM and 1.38 µM | 1.15 µM | 21.8 µM | 1.27 µM and 0.477 µM | 3.6 µM and 3.59 µM | 6.55 µM | 31.2 µM and 90.7 µM | 2.72 µM | > 1000 µM | 2.88 µM | > 96.7 µM and 380 µM | 1.38 µM | 33.4 µM and 29.7 µM | 2.47 µM | 27.1 µM and 3.94 µM | 21.3 µM | > 40 µM and 135 µM | 5.86 µM | > 1000 µM
CCCCNCCCNCCCNC(=O)c1csc(-c2csc(CCNC(=O)C(NC(=O)C(C)C(O)C(C)NC(=O)C(NC(=O)c3nc(C(CC(N)=O)NCC(N)C(N)=O)nc(N)c3C)C(OC3OC(CO)C(O)C(O)C3OC3OC(CO)C(O)C(OC(N)=O)C3O)c3cnc[nH]3)C(C)O)n2)n1 (stereo unspecified) | 0.0491 µM | – | 6.4 µM | 50 µM and > 100 µM | 3.4 µM | 50 µM and > 100 µM | – | 1.79 µM | 1.73 µM | 50 µM and > 100 µM | 20.9 µM | 50 µM and > 84 µM | 0.269 µM | 7.42 µM and 2.2 µM | – | 1.76 µM | – | 17.3 µM | > 50 µM | > 75.7 µM
COc1c2occc2c(N)c2ccc(=O)oc12 | – | > 100 µM | – | > 100 µM | – | > 100 µM | – | > 100 µM | – | > 100 µM | – | > 100 µM | – | > 100 µM | – | > 100 µM | – | > 100 µM | – | > 100 µM
O=C(Nc1ncc(Cc2cccc(C(F)(F)F)c2)s1)c1ccc2c(c1)OCCO2 | 0.58 µM | > 100 µM | 0.411 µM | > 100 µM | 0.34 µM | > 100 µM | 2.97 µM | > 72.2 µM | 0.498 µM | > 35.2 µM | 0.4 µM | > 100 µM | 0.474 µM | > 57.6 µM | 0.244 µM | 1.84 µM | 0.943 µM | > 48.6 µM | 1.54 µM | > 100 µM
Cc1nc2c(N)ncnc2o1 | – | > 100 µM | – | > 100 µM | – | > 100 µM | – | > 100 µM | – | > 100 µM | – | > 100 µM | – | > 100 µM | – | > 100 µM | – | > 100 µM | – | > 100 µM
O=C(O)c1ccc(CNCc2ccccc2)cc1 | – | > 100 µM | – | > 100 µM | – | > 100 µM | – | > 100 µM | – | > 100 µM | – | > 100 µM | – | > 100 µM | – | > 100 µM | – | > 100 µM | – | > 100 µM
Nc1c(C(=O)Nc2ccccn2)sc2nc3c(cc12)C(=O)CCC3 | 6.06 µM | > 100 µM | 0.79 µM | > 100 µM | 0.689 µM | 5.27 µM | 27.7 µM | > 100 µM | 0.47 µM | > 100 µM | 2.23 µM | > 100 µM | 3.29 µM | > 100 µM | 0.473 µM | > 100 µM | 0.443 µM | > 100 µM | 13.4 µM | > 100 µM
C/C(=N\NC(N)=O)c1sc(-c2nc(C)c(/C(C)=N/NC(N)=O)s2)nc1C | – | > 100 µM | – | > 100 µM | – | > 100 µM | – | > 100 µM | – | > 100 µM | – | > 100 µM | – | > 100 µM | – | > 100 µM | – | > 100 µM | – | > 100 µM
COc1cc(/C=C2\CCCCC3=C2N=C2SC(C)=CN2C3c2cc(OC)c(OC)c(OC)c2)cc(OC)c1OC (stereo unspecified) | 11.9 µM | > 100 µM | 34.7 µM | > 100 µM | 19.5 µM | > 100 µM | 0.609 µM | > 100 µM | > 100 µM | > 100 µM | 63.5 µM | > 100 µM | 32.2 µM | > 100 µM | 18 µM | > 100 µM | 9.91 µM | > 100 µM | 89.1 µM | > 100 µM
